Patent US20230339981A1, “KRAS G12D MODULATING COMPOUNDS” (priority 2022, published 2023)

What was measured:
[1] = test system: GP2D (KRAS G12D) cells; experiment: 2D cell viability assay (CellTiter-Glo); assay type: cell-based; conditions: GP2d, 96 h, 4 days
Method in brief: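 Viability was read by CellTiter-Glo after 4 days at 37 °C of 2D culture of KRAS G12D GP2D cells (1000/well, RPMI, 10% FBS) on pre-spotted threefold compound dilutions. EC50 was fitted with a sigmoidal dose-response model as the point of half-maximal luminescence loss.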

[2] = biological target: GDP-loaded KRAS G12D (Homo sapiens (Human), UniProt P01116, G12D); experiment: KRAS G12D (GDP) biochemical assay (TR-FRET probe displacement); assay type: binding; conditions: 2 hours
Sequence of GDP-loaded KRAS G12D (P01116-2 other isoform, or with tags, fused parts or gaps G12D): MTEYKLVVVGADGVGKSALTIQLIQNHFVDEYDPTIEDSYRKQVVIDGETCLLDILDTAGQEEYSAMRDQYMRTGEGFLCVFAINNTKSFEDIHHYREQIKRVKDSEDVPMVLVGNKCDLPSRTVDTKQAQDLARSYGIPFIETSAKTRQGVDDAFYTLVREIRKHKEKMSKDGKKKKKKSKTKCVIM
Method in brief: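 TR-FRET probe displacement: 1:3 DMSO serial dilutions pre-incubated 30 min with GDP-bound KRAS G12D, followed by Eu-streptavidin/probe for 2 h at room temperature (Hepes pH 7.4, NaCl, MgCl2, Tween-20 buffer). IC50 defined as concentration halving TR-FRET ratio, from sigmoidal dose-response fit.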

With C#Cc1c(F)ccc2cccc(-c3nc4c5c(nc(OC[C@@]67CCCN6C[C@@]6(CC6(F)F)C7)nc5c3F)N3C[C@H]5CC[C@H](N5)[C@H]3CC4)c12 [Example 121, (5aR,6S,9R)-12-(((1S,7a'S)-2,2-difluorodihydro-1′H,3′H-spiro[cyclopropane-1,2′-pyrrolizin]-7a′(5′H)-yl)methoxy)-2-(8-ethynyl-7-fluoronaphthalen-1-yl)-1-fluoro-4,5,5a,6,7,8,9,10-octahydro-3,10a,11,13,14-pentaaza-6,9-methanonaphtho[1,8-ab]heptalene] the EC50 [1] was 7 nM and the IC50 [2] was 0.3 nM.

With Fc1ccc2cccc(-c3nc4c5c(nc(OCC6(CN7CC[C@H](OC(F)(F)F)C7)CC6)nc5c3F)N3C[C@H]5CC[C@H](N5)[C@H]3CC4)c2c1OC(F)(F)F [Example 125, (5aR,6S,9R)-1-fluoro-2-(7-fluoro-8-(trifluoromethoxy)naphthalen-1-yl)-12-((1-(((S)-3-(trifluoromethoxy)pyrrolidin-1-yl)methyl)cyclopropyl)methoxy)-4,5,5a,6,7,8,9,10-octahydro-3,10a,11,13,14-pentaaza-6,9-methanonaphtho[1,8-ab]heptalene] the EC50 [1] was 1000 nM and the IC50 [2] was 417 nM.

C#Cc1c(F)ccc2cccc(-c3nc4c5c(nc(OCC6(CN7CC[C@H](OC(F)(F)F)C7)CC6)nc5c3F)N3C[C@H]5CC[C@H](N5)[C@H]3CCC4)c12 [Example 126, (6aR,7S,10R)-2-(8-ethynyl-7-fluoronaphthalen-1-yl)-1-fluoro-13-((1-(((S)-3-(trifluoromethoxy)pyrrolidin-1-yl)methyl)cyclopropyl)methoxy)-5,6,6a,7,8,9,10,11-octahydro-4H-3,11a,12,14,15-pentaaza-7,10-methanocyclohepta[4,5]cycloocta[1,2,3-de]naphthalene] gave an EC50 [1] of 94.4 nM and an IC50 [2] of 2 nM.

C#Cc1c(F)ccc2cccc(-c3nc4c5c(nc(OCC6(CN7CCC(OC(F)(F)F)CC7)CC6)nc5c3F)N3C[C@H]5CC[C@H](N5)[C@H]3CCC4)c12 [Example 127, (6aR,7S,10R)-2-(8-ethynyl-7-fluoronaphthalen-1-yl)-1-fluoro-13-((1-((4-(trifluoromethoxy)piperidin-1-yl)methyl)cyclopropyl)methoxy)-5,6,6a,7,8,9,10,11-octahydro-4H-3,11a,12,14,15-pentaaza-7,10-methanocyclohepta[4,5]cycloocta[1,2,3-de]naphthalene] gave an EC50 [1] of 88.9 nM and an IC50 [2] of 1.6 nM.

C#Cc1c(F)ccc2cc(O)cc(-c3nc4c5c(nc(OC[C@@]67CCCN6C[C@H](OC(C(F)(F)F)(C(F)(F)F)C(F)(F)F)C7)nc5c3F)N3C[C@H]5CC[C@H](N5)[C@H]3CC4)c12 [Example 129, 5-ethynyl-6-fluoro-4-((5aR,6S,9R)-1-fluoro-12-((trans-2-((1,1,1,3,3,3-hexafluoro-2-(trifluoromethyl)propan-2-yl)oxy)tetrahydro-1H-pyrrolizin-7a(5H)-yl)methoxy)-4,5,5a,6,7,8,9,10-octahydro-3,10a,11,13,14-pentaaza-6,9-methanonaphtho[1,8-ab]heptalen-2-yl)naphthalen-2-ol] gave an EC50 [1] of 13.3 nM and an IC50 [2] of 2.7 nM.

C#Cc1c(F)ccc2cccc(-c3nc4c5c(nc(OC[C@@]67CCCN6C[C@H](OC(C(F)(F)F)(C(F)(F)F)C(F)(F)F)C7)nc5c3F)N3C[C@H]5CC[C@H](N5)[C@H]3CC4)c12 [Example 130, (5aR,6S,9R)-2-(8-ethynyl-7-fluoronaphthalen-1-yl)-1-fluoro-12-((trans-2-((1,1,1,3,3,3-hexafluoro-2-(trifluoromethyl)propan-2-yl)oxy)tetrahydro-1H-pyrrolizin-7a(5H)-yl)methoxy)-4,5,5a,6,7,8,9,10-octahydro-3,10a,11,13,14-pentaaza-6,9-methanonaphtho[1,8-ab]heptalene] gave an EC50 [1] of 100 nM and an IC50 [2] of 100 nM.

In the case of CCc1c(F)ccc2cccc(-c3nc4c5c(nc(OC[C@@]67CCCN6C[C@H](F)C7)nc5c3F)N3C[C@H]5CC[C@H](N5)[C@@H]3[C@@H](C)C4)c12 [Example 131, (5S,5aS,6S,9R)-2-(8-ethyl-7-fluoronaphthalen-1-yl)-1-fluoro-12-(((2R,7aS)-2-fluorotetrahydro-1H-pyrrolizin-7a(5H)-yl)methoxy)-5-methyl-4,5,5a,6,7,8,9,10-octahydro-3,10a,11,13,14-pentaaza-6,9-methanonaphtho[1,8-ab]heptalene], the EC50 [1] is reported as 100 nM and the IC50 [2] is reported as 55.3 nM.

In the case of C#Cc1c(F)ccc2cccc(-c3nc4c5c(nc(OCC6(CN7CCC8(CC7)CC8(F)F)CC6)nc5c3F)N3C[C@H]5CC[C@H](N5)[C@@H]3[C@@H](C)C4)c12 [Example 136, (5S,5aS,6S,9R)-12-((1-((1,1-difluoro-6-azaspiro[2.5]octan-6-yl)methyl)cyclopropyl)methoxy)-2-(8-ethynyl-7-fluoronaphthalen-1-yl)-1-fluoro-5-methyl-4,5,5a,6,7,8,9,10-octahydro-3,10a,11,13,14-pentaaza-6,9-methanonaphtho[1,8-ab]heptalene], the EC50 [1] is reported as 100 nM and the IC50 [2] is reported as 17.1 nM.

C#Cc1c(F)ccc2cccc(-c3nc4c5c(nc(OCC67CCCN6C[C@H](OC(F)(F)F)C7)nc5c3F)N3C[C@H]5CC[C@H](N5)[C@H]3CC4)c12 (stereo partly drawn) [Example 137, (5aR,6S,9R)-2-(8-ethynyl-7-fluoronaphthalen-1-yl)-1-fluoro-12-((cis-2-(trifluoromethoxy)tetrahydro-1H-pyrrolizin-7a(5H)-yl)methoxy)-4,5,5a,6,7,8,9,1O-octahydro-3,10a,11,13,14-pentaaza-6,9-methanonaphtho[1,8-ab]heptalene] was tested, and the EC50 [1] was 100 nM and the IC50 [2] was 24.5 nM.

In the case of C#Cc1c(F)ccc2cc(O)cc(-c3nc4c5c(nc(OCC67CCCN6C[C@H](OC(F)(F)F)C7)nc5c3F)N3C[C@H]5CC[C@H](N5)[C@H]3CC4)c12 (stereo partly drawn) [Example 138, 5-ethynyl-6-fluoro-4-((5aR,6S,9R)-1-fluoro-12-((cis-2-(trifluoromethoxy)tetrahydro-1H-pyrrolizin-7a(5H)-yl)methoxy)-4,5,5a,6,7,8,9,10-octahydro-3,10a,11,13,14-pentaaza-6,9-methanonaphtho[1,8-ab]heptalen-2-yl)naphthalen-2-ol], the EC50 [1] is reported as 17.2 nM and the IC50 [2] is reported as 0.3 nM.

For C#Cc1c(F)ccc2cc(O)cc(-c3nc4c5c(nc(OC[C@]67CCCN6C[C@H](OC(C(F)(F)F)(C(F)(F)F)C(F)(F)F)C7)nc5c3F)N3C[C@H]5CC[C@H](N5)[C@H]3CC4)c12 [Example 144, 5-ethynyl-6-fluoro-4-((5aR,6S,9R)-1-fluoro-12-((cis-2-((1,1,1,3,3,3-hexafluoro-2-(trifluoromethyl)propan-2-yl)oxy)tetrahydro-1H-pyrrolizin-7a(5H)-yl)methoxy)-4,5,5a,6,7,8,9,10-octahydro-3,10a,11,13,14-pentaaza-6,9-methanonaphtho[1,8-ab]heptalen-2-yl)naphthalen-2-ol], the EC50 [1] was 100 nM and the IC50 [2] was 83.1 nM.

C#Cc1c(F)ccc2cccc(-c3nc4c5c(nc(OC[C@]67CCCN6C[C@H](OC(C(F)(F)F)(C(F)(F)F)C(F)(F)F)C7)nc5c3F)N3C[C@H]5CC[C@H](N5)[C@H]3CC4)c12 [Example 145, (5aR,6S,9R)-2-(8-ethynyl-7-fluoronaphthalen-1-yl)-1-fluoro-12-((cis-2-((1,1,1,3,3,3-hexafluoro-2-(trifluoromethyl)propan-2-yl)oxy)tetrahydro-1H-pyrrolizin-7a(5H)-yl)methoxy)-4,5,5a,6,7,8,9,10-octahydro-3,10a,11,13,14-pentaaza-6,9-methanonaphtho[1,8-ab]heptalene] showed an EC50 [1] of 100 nM and an IC50 [2] of 100 nM.
